Here are results for 19 compounds from ChEMBL document CHEMBL5252572, “Design, synthesis, and anti-triple negative breast cancer activity of novel Toosendanin derivatives” (Bioorg Med Chem Lett, 2023).

Structures can show the parent of a compound that is named as a salt. The source made the active and inactive calls. The calls are words filed in the database; no cut-off is given here.

The subject of test [1] is HCC1806. Nature of the test: Antiproliferative activity against human HCC1806 cells assessed as inhibition of cell growth by SRB assay. Type of test: functional, cell-based.
In test [2] the test system is MDA-MB-231. In words: Antiproliferative activity against human MDA-MB-231 cells assessed as inhibition of cell growth by SRB assay. The format is functional, cell-based.
For test [3], the system named is MDA-MB-231. In words: Antiproliferative activity against human MDA-MB-231 cells assessed as inhibition of cell growth at 20 uM by SRB assay relative to control. Type of test: functional.
Test [4] relates to HCC1806. Nature of the test: Antiproliferative activity against human HCC1806 cells assessed as inhibition of cell growth at 20 uM by SRB assay relative to control. Type of test: functional.
Test [5] relates to 4T1. In words: Antitumor activity against mouse 4T1 cells implanted in BALB/C mouse assessed as tumor growth inhibition at 0.69 mg/kg administered once every two days for 15 days in the presence of adriamycin relative to control. To be noted: 4T1, 360 h, time 15 day, read-out: TGI. The format is functional.
For test [6], the system named is HCC1806. Nature of the test: Induction of cell cycle arrest in human HCC1806 cells assessed as accumulation at S phase at 10 uM incubated for 24 hrs by flow cytometric analysis. The format is functional, cell-based.
Test [7] deals with HCC1806. Nature of the test: Induction of cell cycle arrest in human HCC1806 cells assessed as decrease in G2/M phase cells at 10 uM incubated for 24 hrs by flow cytometric analysis. The format is functional, cell-based.
Test [8] has as its target RAC-alpha serine/threonine-protein kinase (Homo sapiens) (UniProt P31749). In words: Inhibition of AKT phosphorylation in human HCC1806 cells at 10 uM incubated for 24 hrs by Western blot analysis. Type of test: cell-based.
The test system of test [9] is HCC1806. Nature of the test: Antitumor activity against human HCC1806 cells assessed as reduction in p53 protein level at 10 uM incubated for 24 hrs by Western blot analysis. Type of test: functional, cell-based.
Test [10] has as its system HCC1806. Nature of the test: Antitumor activity against human HCC1806 cells assessed as induction of p21 protein accumulation at 10 uM incubated for 24 hrs by Western blot analysis. The format is functional, cell-based.
The subject of test [11] is HCC1806. Nature of the test: Antitumor activity against human HCC1806 cells assessed as induction of phosphorylated p38 protein accumulation at 10 uM incubated for 24 hrs by Western blot analysis. Type of test: functional, cell-based.
Test [12] concerns HCC1806. Nature of the test: Inhibition of ERK phosphorylation in human HCC1806 cells at 10 uM incubated for 24 hrs by Western blot analysis. The format is cell-based.
In test [13] the test system is 4T1. In words: Antitumor activity against mouse 4T1 cells implanted in BALB/C mouse assessed as tumor growth inhibition at 4 mg/kg administered once every two days for 15 days in the presence of toosendanin relative to control. Type of test: functional. To be noted: 4T1, 360 h, time 15 day, read-out: TGI.

Chain of RAC-alpha serine/threonine-protein kinase (Homo sapiens) (P31749 whole entry): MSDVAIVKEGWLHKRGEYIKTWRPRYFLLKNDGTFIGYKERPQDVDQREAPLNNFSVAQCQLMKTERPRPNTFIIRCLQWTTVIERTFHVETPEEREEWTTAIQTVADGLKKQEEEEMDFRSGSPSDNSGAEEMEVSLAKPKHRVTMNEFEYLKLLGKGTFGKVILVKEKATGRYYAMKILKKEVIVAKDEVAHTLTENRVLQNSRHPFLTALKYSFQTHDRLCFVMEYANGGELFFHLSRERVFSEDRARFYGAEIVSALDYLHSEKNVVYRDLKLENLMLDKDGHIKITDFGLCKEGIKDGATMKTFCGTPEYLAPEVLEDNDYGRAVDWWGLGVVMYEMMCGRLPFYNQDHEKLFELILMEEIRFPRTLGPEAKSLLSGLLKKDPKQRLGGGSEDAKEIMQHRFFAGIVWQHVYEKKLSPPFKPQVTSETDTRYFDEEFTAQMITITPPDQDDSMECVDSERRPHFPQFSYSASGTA

Take `CC(=O)O[C@@H]1C[C@H](O)[C@@]23COC[C@]1(C)[C@@H]2C[C@@H](O)[C@@]1(C)[C@@H]2[C@@H](O)C[C@@H](c4ccoc4)[C@]2(C)[C@@H](OC(C)=O)C(=O)[C@@H]13`: the IC50 in the test with HCC1806 [1] stood at 5.76 µM; in the test with MDA-MB-231 [2] it was 11.8 µM. The inhibition at 20 µM was found to be 61.5% in the test on MDA-MB-231 [3] and 87.3% in the test on HCC1806 [4].
For the compound `CC(=O)O[C@H]1C[C@@H](OC(C)=O)[C@]2(C)C(O)OC[C@]13[C@H]1C(=O)[C@H](OC(C)=O)[C@@]4(C)[C@H](c5ccoc5)C[C@H]5O[C@]54[C@]1(C)[C@H](OC(C)=O)C[C@@H]23` (stereo partly drawn), the inhibition at 20 µM in the test on MDA-MB-231 [3] is 6.36%; in the test on HCC1806 [4], -27.9%.
With `CC(=O)O[C@@H]1C[C@H](O)[C@@]23COC[C@]1(C)[C@@H]2C[C@@H](OC(=O)/C=C/c1ccc(OC(F)(F)F)cc1)[C@@]1(C)[C@@H]2C(=O)C[C@@H](c4ccoc4)[C@]2(C)[C@@H](OC(C)=O)C(=O)[C@@H]13`, the values for the inhibition at 20 µM in the test on MDA-MB-231 [3] and in the test with HCC1806 [4] were 9.9% and 18.1%, respectively.
The like results for `CC(=O)O[C@@H]1C[C@H](O)[C@@]23COC[C@]1(C)[C@@H]2C[C@@H](OC(=O)c1ccccc1F)[C@@]1(C)[C@@H]2C(=O)C[C@@H](c4ccoc4)[C@]2(C)[C@@H](OC(C)=O)C(=O)[C@@H]13` were, in that order, 8.23% and -1.53%.
On to `CC(=O)O[C@@H]1C[C@H](O)[C@@]23CO[C@@H](O)[C@]1(C)[C@@H]2C[C@@H](O)[C@]1(C)[C@@H]3C(=O)[C@H](OC(C)=O)[C@@]2(C)[C@H](c3ccoc3)C[C@H]3O[C@]321` [TOOSENDANIN], for which the inhibition in vivo at 0.69 mg/kg with 4T1 [5] turned out to be 90%. Moreover, the result in the test on HCC1806 [6], in the test with HCC1806 [7], in the test with HCC1806 [9], in the test on HCC1806 [10] and in the test on HCC1806 [11] was Active. Besides, the figures for the IC50 in the test on HCC1806 [1] and with MDA-MB-231 [2] were 0.019 µM and 0.115 µM, respectively. The inhibition entry (in test [8]; in the test on HCC1806 [12]) was “Active” each time. In addition, the inhibition at 20 µM with MDA-MB-231 [3] was 79.2%; with HCC1806 [4], 101%.
For the compound `CC(=O)O[C@H]1C[C@@H](OC(C)=O)[C@]2(C)C(=O)OC[C@]13[C@H]1C(=O)[C@H](OC(C)=O)[C@@]4(C)[C@H](c5ccoc5)C[C@H]5O[C@]54[C@]1(C)[C@H](OC(C)=O)C[C@@H]23`, the figures for the inhibition at 20 µM with MDA-MB-231 [3] and in the test on HCC1806 [4] were 4.86% and -9.68%, respectively.
For the compound `CC(=O)O[C@@H]1C[C@H](O)[C@@]23COC[C@]1(C)[C@@H]2C[C@@H](OC(=O)c1ccc([N+](=O)[O-])cc1)[C@@]1(C)[C@@H]2C(=O)C[C@@H](c4ccoc4)[C@]2(C)[C@@H](OC(C)=O)C(=O)[C@@H]13`, the inhibition at 20 µM with MDA-MB-231 [3] is 3.95%; in the test on HCC1806 [4], -0.88%.
`CC(=O)O[C@@H]1C[C@H](O)[C@@]23COC[C@]1(C)[C@@H]2C[C@@H](OC(=O)c1ccccc1)[C@@]1(C)[C@@H]2C(=O)C[C@@H](c4ccoc4)[C@]2(C)[C@@H](OC(C)=O)C(=O)[C@@H]13`: the inhibition at 20 µM amounted to 20.7% in the test on MDA-MB-231 [3] and 14.9% with HCC1806 [4].
As for `COc1cccc2c1C(=O)c1c(O)c3c(c(O)c1C2=O)C[C@@](O)(C(=O)CO)C[C@@H]3O[C@H]1C[C@H](N)[C@H](O)[C@H](C)O1` [DOXORUBICIN HYDROCHLORIDE], the inhibition in vivo at 4 mg/kg in the test with 4T1 [13] was determined as 90%.
For `CC(=O)O[C@@H]1C[C@H](O)[C@@]23COC[C@]1(C)[C@@H]2C[C@@H](O)[C@@]1(C)[C@@H]2C(=O)C[C@@H](c4ccoc4)[C@]2(C)[C@@H](OC(C)=O)C(=O)[C@@H]13`, the inhibition at 20 µM in the test with MDA-MB-231 [3] was 5.4%; in the test on HCC1806 [4], -42.3%.
Consider `CC(=O)O[C@@H]1C[C@H](O)[C@@]23COC(=O)[C@]1(C)[C@@H]2C[C@@H](O)[C@]1(C)[C@@H]3C(=O)C(O)[C@@]2(C)[C@H](c3ccoc3)C[C@H]3O[C@@]312` (mixture of isomers), for which the inhibition at 20 µM worked out at 9.58% in the test with MDA-MB-231 [3] and 9.96% with HCC1806 [4].
Consider `CC(=O)O[C@@H]1C[C@H](O)[C@@]23COC[C@]1(C)[C@@H]2C[C@@H](O)[C@@]1(C)[C@@H]2/C(=N/O)C[C@@H](c4ccoc4)[C@]2(C)[C@@H](OC(C)=O)C(=O)[C@@H]13`, for which the values for the inhibition at 20 µM in the test on MDA-MB-231 [3] and with HCC1806 [4] were 4.72% and 10.9%, respectively.
With `CC(=O)OC1OC[C@]23[C@@H](OC(C)=O)C[C@@H](OC(C)=O)[C@@]1(C)[C@@H]2C[C@@H](OC(C)=O)[C@]1(C)[C@@H]3C(=O)[C@H](OC(C)=O)[C@@]2(C)[C@H](c3ccoc3)C[C@H]3O[C@@]312` (stereo partly drawn), the results for the inhibition at 20 µM in the test with MDA-MB-231 [3] and in the test with HCC1806 [4] were 128% and -31%, respectively.
The corresponding values for `COc1ccc(C(=O)O[C@@H]2C[C@H]3[C@@]4(C)COC[C@@]3([C@@H](O)C[C@H]4OC(C)=O)[C@H]3C(=O)[C@H](OC(C)=O)[C@]4(C)[C@@H](C(=O)C[C@H]4c4ccoc4)[C@]23C)cc1` are 14.3% and 0.37%.
As for `COC1OC[C@]23[C@@H](O)C[C@@H](OC(C)=O)[C@@]1(C)[C@@H]2C[C@@H](O)[C@@]1(C)[C@@H]2C(=O)C[C@@H](c4ccoc4)[C@]2(C)[C@@H](OC(C)=O)C(=O)[C@@H]13` (stereo partly drawn), the figures for the inhibition at 20 µM with MDA-MB-231 [3] and in the test on HCC1806 [4] were 4.29% and -15.8%, respectively.
In the case of `CC(=O)O[C@@H]1C[C@H](O)[C@@]23COC(=O)[C@]1(C)[C@@H]2C[C@@H](O)[C@]1(C)[C@@H]3C(=O)[C@H](OC(C)=O)[C@@]2(C)[C@H](c3ccoc3)C[C@H]3O[C@]321`, the result with HCC1806 [6], with HCC1806 [7], in the test with HCC1806 [9], in the test on HCC1806 [10] and with HCC1806 [11] was Active. Moreover, the results for the IC50 with HCC1806 [1] and in the test with MDA-MB-231 [2] were 0.98 µM and 6.61 µM, respectively. Also, the inhibition result (in test [8]; with HCC1806 [12]) was “Active” each time. In addition, the inhibition at 20 µM amounted to 68.7% in the test on MDA-MB-231 [3] and 93.8% with HCC1806 [4].
On to `CC(=O)O[C@@H]1C[C@H](O)[C@@]23COC[C@]1(C)[C@@H]2CC(=O)[C@@]1(C)[C@@H]2C(=O)C[C@@H](c4ccoc4)[C@]2(C)[C@@H](OC(C)=O)C(=O)[C@@H]13`, for which the inhibition at 20 µM with MDA-MB-231 [3] amounted to 11.7%; with HCC1806 [4], 14.7%.
Turning to `CC(=O)O[C@@H]1C[C@H](O)[C@@]23COC(=O)[C@]1(C)[C@@H]2C[C@@H](O)[C@@]1(C)[C@@H]2C(=O)C[C@@H](c4ccoc4)[C@]2(C)[C@@H](OC(C)=O)C(=O)[C@@H]13`, the inhibition at 20 µM is 6.87% in the test with MDA-MB-231 [3] and -24.7% in the test with HCC1806 [4].
Take `CC(=O)O[C@@H]1C[C@H](O)[C@@]23COC[C@]1(C)[C@@H]2C[C@@H](O)[C@@]1(C)[C@@H]2C(=O)C[C@@H](c4coc(Br)c4)[C@]2(C)[C@@H](OC(C)=O)C(=O)[C@@H]13`: the inhibition at 20 µM in the test on MDA-MB-231 [3] was -5.16%; in the test with HCC1806 [4] it was 2.97%.
